From ChEMBL document CHEMBL3826911, “Rational design and synthesis of novel anti-prostate cancer agents bearing a 3,5-bis-trifluoromethylphenyl moiety” (Bioorg Med Chem Lett, 2016) come the findings set out here.

The IC50 is the midpoint of a concentration-inhibition curve. The AC50 is the concentration giving half of the maximal activity seen. For orientation: half-life means the time needed for the level to fall by half in the phase considered. What is called inhibition is the drop in the measured response relative to a control, in per cent.

Series [1] is described as follows: Antiproliferative activity against human DU145 cells assessed as reduction in cell viability after 96 hrs by propidium iodide staining based fluorescence assay. It is filed as functional, DU-145. As to conditions: Homo sapiens, DU-145, 96 h; read-out: IC50.
A short description of series [2]: Antiproliferative activity against human VCaP cells assessed as reduction in cell viability after 96 hrs by propidium iodide staining based fluorescence assay. It counts as functional. As to conditions: Homo sapiens, VCaP, 96 h; read-out: IC50.
A short description of series [3]: Protein binding in human plasma by equilibrium dialysis method. It counts as ADME, cell-free. The conditions noted are these: read-out: PPB (converted).
The subject of series [4] is CWR22R. The series can be described thus: Antiproliferative activity against human 22Rv1 cells assessed as reduction in cell viability after 96 hrs by propidium iodide staining based fluorescence assay. It counts as functional. The conditions noted are these: Homo sapiens, 22Rv1, 96 h; read-out: IC50.
Series [5] concerns HepG2. The series can be described thus: Cytotoxicity against human HepG2 cells assessed as cell viability after 72 hrs by MTT assay. It counts as functional, cell-based.
Series [6] in a line: Half life in human liver microsomes at 3 uM in presence of NADPH by LC-MS/MS analysis. It is filed as ADME.
A short description of series [7]: Intrinsic clearance in human liver microsomes assessed per mg of protein at 3 uM in presence of NADPH by LC-MS/MS analysis. It counts as ADME. As to conditions: read-out: CLH. Background: Liver microsomes are a subcellular fraction often used to study metabolism.
For series [8], the target named is hERG (KCNH2) (Homo sapiens, UniProt Q12809). The series can be described thus: Inhibition of human ERG transfected in CHO cells assessed as blockade of tail current at 25 uM by patch clamp assay. It is filed as cell-based. As to conditions: CHO cells transfected with human ERG.
Chain of hERG (KCNH2) (Q12809 whole entry): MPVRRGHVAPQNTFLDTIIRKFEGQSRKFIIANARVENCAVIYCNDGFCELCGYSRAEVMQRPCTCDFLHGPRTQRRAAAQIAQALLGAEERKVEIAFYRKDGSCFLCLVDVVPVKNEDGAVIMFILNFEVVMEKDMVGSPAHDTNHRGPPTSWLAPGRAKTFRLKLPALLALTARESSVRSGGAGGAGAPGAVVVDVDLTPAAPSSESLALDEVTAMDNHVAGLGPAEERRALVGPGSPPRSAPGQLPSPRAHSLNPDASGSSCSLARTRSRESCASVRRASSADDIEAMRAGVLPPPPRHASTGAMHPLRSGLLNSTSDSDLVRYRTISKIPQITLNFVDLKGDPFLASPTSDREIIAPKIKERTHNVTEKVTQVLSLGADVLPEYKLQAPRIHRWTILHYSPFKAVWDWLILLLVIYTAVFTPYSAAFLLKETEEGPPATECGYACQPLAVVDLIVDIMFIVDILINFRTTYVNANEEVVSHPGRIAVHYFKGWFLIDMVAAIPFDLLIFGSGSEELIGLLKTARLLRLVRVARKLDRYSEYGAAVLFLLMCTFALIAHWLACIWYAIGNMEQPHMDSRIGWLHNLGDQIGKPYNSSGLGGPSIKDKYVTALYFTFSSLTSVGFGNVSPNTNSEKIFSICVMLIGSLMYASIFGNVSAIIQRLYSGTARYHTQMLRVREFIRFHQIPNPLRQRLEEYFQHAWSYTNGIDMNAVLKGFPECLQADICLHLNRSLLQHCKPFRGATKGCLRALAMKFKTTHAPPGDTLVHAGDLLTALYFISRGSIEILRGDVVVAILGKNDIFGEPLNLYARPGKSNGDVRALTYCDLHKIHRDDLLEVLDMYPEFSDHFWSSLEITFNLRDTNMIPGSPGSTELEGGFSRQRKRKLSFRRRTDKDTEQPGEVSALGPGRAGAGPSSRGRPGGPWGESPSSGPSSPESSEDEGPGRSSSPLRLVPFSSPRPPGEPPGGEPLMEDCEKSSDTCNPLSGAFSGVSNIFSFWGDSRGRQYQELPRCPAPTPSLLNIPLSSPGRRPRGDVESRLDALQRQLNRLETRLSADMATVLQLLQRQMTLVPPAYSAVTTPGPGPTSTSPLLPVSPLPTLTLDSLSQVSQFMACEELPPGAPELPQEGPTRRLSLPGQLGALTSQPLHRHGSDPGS
The test system of series [9] is Liver microsome. The series can be described thus: Metabolic stability in human liver microsomes at 3 uM in presence of NADPH by LC-MS/MS analysis. It counts as ADME.
Series [10] addresses Albumin (Homo sapiens, UniProt P02768). The experiment in a line: Binding affinity to human serum albumin at 5 uM by equilibrium dialysis based LC-MS/MS analysis. The conditions noted are these: read-out: PB (converted). It counts as ADME. (Equilibrium dialysis compares concentrations on both sides of a semipermeable membrane.)
The subject of series [11] is LNCaP. The series can be described thus: Antiproliferative activity against human LNCAP cells assessed as reduction in cell viability after 96 hrs by propidium iodide staining based fluorescence assay. It counts as functional. The conditions noted are these: Homo sapiens, LNCaP, 96 h; read-out: IC50.
Series [12] addresses T1, Androgen receptor (Homo sapiens, UniProt P10275).
T1 sequence (P10275 whole entry): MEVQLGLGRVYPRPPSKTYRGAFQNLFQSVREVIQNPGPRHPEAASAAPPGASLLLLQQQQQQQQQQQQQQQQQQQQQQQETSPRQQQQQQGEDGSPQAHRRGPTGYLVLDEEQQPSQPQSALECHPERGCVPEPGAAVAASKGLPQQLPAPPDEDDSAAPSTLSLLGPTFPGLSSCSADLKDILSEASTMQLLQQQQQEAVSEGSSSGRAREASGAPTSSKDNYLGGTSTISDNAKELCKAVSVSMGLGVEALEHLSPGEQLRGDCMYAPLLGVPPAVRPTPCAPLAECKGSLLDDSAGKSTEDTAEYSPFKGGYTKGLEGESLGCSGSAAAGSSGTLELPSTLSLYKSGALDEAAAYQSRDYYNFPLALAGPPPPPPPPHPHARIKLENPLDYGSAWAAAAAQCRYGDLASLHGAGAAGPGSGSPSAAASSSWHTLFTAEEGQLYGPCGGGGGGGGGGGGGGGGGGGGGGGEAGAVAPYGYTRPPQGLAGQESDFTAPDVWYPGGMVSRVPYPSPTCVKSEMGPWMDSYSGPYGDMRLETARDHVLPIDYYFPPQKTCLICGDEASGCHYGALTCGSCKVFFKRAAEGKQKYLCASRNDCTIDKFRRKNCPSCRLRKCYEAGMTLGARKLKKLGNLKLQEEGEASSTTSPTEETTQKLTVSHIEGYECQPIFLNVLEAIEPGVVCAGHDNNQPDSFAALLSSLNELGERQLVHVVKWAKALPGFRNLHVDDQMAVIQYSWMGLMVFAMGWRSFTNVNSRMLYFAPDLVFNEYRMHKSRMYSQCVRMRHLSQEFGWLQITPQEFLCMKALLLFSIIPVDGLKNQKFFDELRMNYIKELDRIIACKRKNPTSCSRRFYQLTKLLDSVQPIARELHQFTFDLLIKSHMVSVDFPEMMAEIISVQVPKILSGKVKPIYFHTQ
It is filed as cell-based, GripTite-293.
Description: Antagonist activity at GAL4 DBD-fused androgen receptor LBD (unknown origin) transfected in UAS-bla GripTite 293 cells assessed as inhibition of R1881-induced receptor activation after 16 to 24 hrs by beta-lactamase reporter gene assay

Series [13] concerns the target T2, Androgen receptor (Homo sapiens) (UniProt P10275).
T2 sequence (whole entry): T1 sequence (P10275 whole entry)
As to conditions: GripTite-293, at 10 µM.

Chain of Albumin (P02768 whole entry): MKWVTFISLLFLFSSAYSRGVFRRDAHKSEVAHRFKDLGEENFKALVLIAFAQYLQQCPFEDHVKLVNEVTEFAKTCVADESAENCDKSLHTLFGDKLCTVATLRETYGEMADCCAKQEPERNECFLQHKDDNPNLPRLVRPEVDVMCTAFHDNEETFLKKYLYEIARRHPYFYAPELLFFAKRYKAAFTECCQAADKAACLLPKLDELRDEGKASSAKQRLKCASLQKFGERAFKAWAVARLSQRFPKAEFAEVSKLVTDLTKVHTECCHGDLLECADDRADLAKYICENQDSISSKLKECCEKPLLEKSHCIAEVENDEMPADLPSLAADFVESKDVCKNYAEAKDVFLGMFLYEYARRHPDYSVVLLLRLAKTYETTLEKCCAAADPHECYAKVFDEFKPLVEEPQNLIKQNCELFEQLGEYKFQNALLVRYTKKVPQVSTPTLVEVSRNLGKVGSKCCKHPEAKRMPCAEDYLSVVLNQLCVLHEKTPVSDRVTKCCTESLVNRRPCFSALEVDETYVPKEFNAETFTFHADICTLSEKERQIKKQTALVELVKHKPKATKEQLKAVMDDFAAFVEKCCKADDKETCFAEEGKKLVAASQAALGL

On to `C[C@](O)(CS(=O)(=O)c1ccc(F)cc1)C(=O)Nc1ccc(C#N)c(C(F)(F)F)c1` [(R)-BICALUTAMIDE], for which the IC50 in series [1] turned out to be 45.4 µM; in series [2] it was 51.6 µM; in [4], 46.2 µM. In addition, in series [3], the fraction unbound is 0.04. The AC50 in [5] (HepG2, 72 h) is 54.3 µM. The half-life at 3 µM in [6] turned out to be 3.57 h.

As to `COc1ccc2c(c1)[C@]13CCCC[C@@H]1[C@H](C2)N(C)CC3` [DEXTROMETHORPHAN], the microsomal CLint at 3 µM in [7] came out at 21.9 µL/min/mg. The half-life at 3 µM in series [6] is 1.05 h.

As for `C[C@](O)(CS(=O)(=O)c1cc(C(F)(F)F)cc(C(F)(F)F)c1)C(=O)Nc1ccc(C#N)c(C(F)(F)F)c1`, the IC50 in series [1] worked out at 6.36 µM; in [2], 4.11 µM; in series [4] it was 2.5 µM; in [11], 1.99 µM. Further, the inhibition at 25 µM in series [8] stood at 29.3%. In addition, in series [9], the Stability result was “Stable”. Moreover, the fraction unbound at 5 µM in series [10] is 0.001. Besides, in series [5], the Activity result was “Dose-dependent effect”.

For the compound `CC1(C)C(=O)N(c2ccc([N+](=O)[O-])cc2C(F)(F)F)C(=S)N1c1cc(C(F)(F)F)cc(C(F)(F)F)c1`, the IC50 is 10 µM in series [1], 18.6 µM in [2], 6.97 µM in series [4] and 4.67 µM in series [11]. Further, the inhibition at 25 µM in series [8] turned out to be 9.44%. Also, in [10], the fraction unbound at 5 µM was 0.001. Also, the Activity entry in series [5] was “Dose-dependent effect”. For the same compound, the half-life at 3 µM in [6] turned out to be 1.19 h.

For the compound `CC(O)(CSc1cc(C(F)(F)F)cc(C(F)(F)F)c1)C(=O)Nc1ccc([N+](=O)[O-])c(C(F)(F)F)c1` (stereo not given), the half-inhibitory concentration (IC50) in [1] is 2.78 µM; in [2] it was 1.53 µM; in [4] it was 1.5 µM; in series [12], 0.71 µM; in series [11], 1.5 µM. This compound came in with an inhibition in series [13] of 90%. Besides, the Activity result in [5] is “Dose-dependent effect”.

Take `CC(O)(CS(=O)(=O)c1cc(C(F)(F)F)cc(C(F)(F)F)c1)C(=O)Nc1ccc([N+](=O)[O-])c(C(F)(F)F)c1` (stereo not given): the IC50 in series [1] was 5.26 µM; in [2] it was 3.3 µM; in series [4] it was 2.15 µM; in series [12], 3.1 µM; in series [11], 2.1 µM. The inhibition in series [13] amounted to 93%. Besides, the AC50 in series [5] (HepG2, 72 h) was found to be 9.01 µM. In addition, in [5] (HepG2, 72 h, read-out: MEC), the minimal effective concentration worked out at 3.6 µM. The half-life at 3 µM in series [6] came out at 9.45 h.
